Reference: the NIST ThermoML archive (doi:10.1016/j.jct.2003.08.017)

Columns and labels:
[1] = molar heat capacity at constant pressure; details: 101.33 kPa, Small (less than 1 g) adiabatic calorimetry
[2] = Molar enthalpy of transition or fusion; details: Crystal
[3] = Crystal

OCC1c2ccccc2-c2ccccc21 [9-fluorenemethanol]
[1]
Details | molar heat capacity at constant pressure [J/K/mol]
78.5 K, Crystal | 74.59
79.9 K, Crystal | 75.63
82.26 K, Crystal | 77.22
84.64 K, Crystal | 78.94
85.94 K, Crystal | 79.76
87.24 K, Crystal | 80.69
88.54 K, Crystal | 81.69
89.84 K, Crystal | 82.71
91.05 K, Crystal | 83.42
92.27 K, Crystal | 84.33
93.81 K, Crystal | 85.44
95.68 K, Crystal | 86.83
97.47 K, Crystal | 88.34
99.25 K, Crystal | 89.58
101.04 K, Crystal | 90.8
102.74 K, Crystal | 92
104.45 K, Crystal | 93.28
106.15 K, Crystal | 94.37
107.78 K, Crystal | 95.55
110.05 K, Crystal | 97.38
112.81 K, Crystal | 99.34
115.57 K, Crystal | 101.09
118.25 K, Crystal | 103.07
120.84 K, Crystal | 105.05
123.44 K, Crystal | 107.15
126.04 K, Crystal | 109.39
128.55 K, Crystal | 111.1
131.07 K, Crystal | 112.95
133.5 K, Crystal | 114.39
135.94 K, Crystal | 116.5
138.38 K, Crystal | 118.22
140.73 K, Crystal | 120.24
143.08 K, Crystal | 121.92
145.44 K, Crystal | 123.49
147.79 K, Crystal | 125.56
150.06 K, Crystal | 127.26
152.34 K, Crystal | 129.25
154.61 K, Crystal | 130.86
156.8 K, Crystal | 132.44
158.99 K, Crystal | 134.22
161.18 K, Crystal | 136.08
163.38 K, Crystal | 137.61
165.57 K, Crystal | 139.23
167.68 K, Crystal | 141.01
169.87 K, Crystal | 142.68
171.98 K, Crystal | 144.26
174.09 K, Crystal | 145.97
176.12 K, Crystal | 147.81
178.23 K, Crystal | 149.54
180.26 K, Crystal | 151.27
182.29 K, Crystal | 153.26
184.32 K, Crystal | 155.07
186.35 K, Crystal | 156.65
188.38 K, Crystal | 158.43
190.32 K, Crystal | 160.03
192.27 K, Crystal | 161.75
194.22 K, Crystal | 163.44
196.17 K, Crystal | 165.02
198.12 K, Crystal | 167.02
200.06 K, Crystal | 168.41
201.93 K, Crystal | 170.12
203.88 K, Crystal | 172.09
205.75 K, Crystal | 173.99
207.69 K, Crystal | 175.77
209.56 K, Crystal | 177.8
211.43 K, Crystal | 179.56
213.21 K, Crystal | 181.31
215.08 K, Crystal | 183.23
216.95 K, Crystal | 185.04
218.73 K, Crystal | 186.49
220.52 K, Crystal | 188.39
222.38 K, Crystal | 190.43
224.17 K, Crystal | 192.38
225.96 K, Crystal | 194.23
227.66 K, Crystal | 195.8
229.45 K, Crystal | 197.65
231.15 K, Crystal | 199.09
232.86 K, Crystal | 201.07
234.64 K, Crystal | 202.79
236.35 K, Crystal | 203.84
238.05 K, Crystal | 205.56
239.75 K, Crystal | 207.12
241.46 K, Crystal | 208.72
243.08 K, Crystal | 210.03
244.71 K, Crystal | 211.22
246.41 K, Crystal | 212.28
248.12 K, Crystal | 213.72
249.74 K, Crystal | 215.05
251.36 K, Crystal | 216.5
253.07 K, Crystal | 218.21
254.69 K, Crystal | 219.66
256.31 K, Crystal | 220.83
257.94 K, Crystal | 221.75
259.56 K, Crystal | 223.22
261.18 K, Crystal | 224.27
262.73 K, Crystal | 225.73
264.35 K, Crystal | 226.9
265.97 K, Crystal | 228.35
267.6 K, Crystal | 229.68
269.14 K, Crystal | 231.11
270.68 K, Crystal | 232.43
272.14 K, Crystal | 233.76
273.68 K, Crystal | 235.07
276.77 K, Crystal | 237.44
280.83 K, Crystal | 240.46
284.15 K, Crystal | 243.34
287.89 K, Crystal | 246.4
291.22 K, Crystal | 248.63
294.46 K, Crystal | 252.05
297.55 K, Crystal | 255.07
300.71 K, Crystal | 258.24
303.8 K, Crystal | 261.53
306.96 K, Crystal | 265.22
310.05 K, Crystal | 268.37
313.05 K, Crystal | 272.08
316.13 K, Crystal | 275.5
319.22 K, Crystal | 279.32
322.22 K, Crystal | 283
325.23 K, Crystal | 287.49
328.23 K, Crystal | 292.62
331.15 K, Crystal | 297.89
334.07 K, Crystal | 303.26
337 K, Crystal | 308.39
339.84 K, Crystal | 314.22
342.68 K, Crystal | 320.06
345.44 K, Crystal | 326.47
348.03 K, Crystal | 332.27
350.71 K, Crystal | 338.6
353.31 K, Crystal | 344.72
355.99 K, Crystal | 351.11
358.59 K, Crystal | 357.3
360.94 K, Crystal | 363.05
378.41 K, Liquid | 50.2
379.63 K, Liquid | 50.76
381.41 K, Liquid | 51.75
383.59 K, Liquid | 52.7
385.71 K, Liquid | 53.72
387.58 K, Liquid | 54.67
389.69 K, Liquid | 55.38

Details | Molar enthalpy of transition or fusion [kcal/mol] | Triple point temperature [K]
[2] | 6.279 | –
[3] | – | 376.57
